Drawing on BindingDB's records for doi:10.1016/j.bmcl.2004.09.058 (Schering-Plough Research Institute, 2004), this text covers Ki for eleven molecules.

The target of the assay is Genome polyprotein (Hepatitis C virus genotype 1a (isolate H77), UniProt P27958). Kind of assay: Continuous Spectrophotometric Assay. The settings on record: pH 6.5; 30 °C. As for the experimental part: Proteolytic cleavage of the ester linkage between the Nva (L-norvaline) and the chromophore (PAP) was monitored for change in absorbance at 370 nm. Initial velocities were determined using linear regression and kinetic constants were obtained by fitting the data to the Michaelis-Menten equation.
Chain of Genome polyprotein (P27958 1027-1657 limits assumed): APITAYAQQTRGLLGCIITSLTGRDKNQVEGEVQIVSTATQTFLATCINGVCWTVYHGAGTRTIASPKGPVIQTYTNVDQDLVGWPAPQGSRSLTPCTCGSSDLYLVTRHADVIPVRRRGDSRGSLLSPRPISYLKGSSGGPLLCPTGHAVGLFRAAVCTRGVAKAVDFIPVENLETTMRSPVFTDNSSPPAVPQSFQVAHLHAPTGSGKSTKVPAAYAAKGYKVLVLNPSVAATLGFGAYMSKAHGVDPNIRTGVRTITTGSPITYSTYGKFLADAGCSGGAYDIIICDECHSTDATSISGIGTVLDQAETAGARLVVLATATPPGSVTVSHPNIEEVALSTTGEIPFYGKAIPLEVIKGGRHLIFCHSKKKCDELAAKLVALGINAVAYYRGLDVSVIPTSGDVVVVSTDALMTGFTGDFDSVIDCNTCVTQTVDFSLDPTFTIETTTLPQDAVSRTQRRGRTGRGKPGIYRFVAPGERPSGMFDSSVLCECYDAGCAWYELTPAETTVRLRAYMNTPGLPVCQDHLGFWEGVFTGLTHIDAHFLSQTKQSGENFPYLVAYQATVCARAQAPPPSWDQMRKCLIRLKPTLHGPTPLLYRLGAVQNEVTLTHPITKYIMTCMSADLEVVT
Consider `C=CCNC(=O)C(=O)C(CCC)NC(=O)[C@@H]1CNC(=O)N1C(=O)[C@@H](NC(=O)[C@@H](NC(=O)[C@H](CCC(=O)O)NC(=O)[C@H](CCC(=O)O)NC(C)=O)C(C)C)C(C)C` (stereo partly drawn) [(4S)-4-{[(1S)-3-carboxy-1-{[(1S)-2-methyl-1-{[(2S)-3-methyl-1-oxo-1-[(5S)-2-oxo-5-{[1-oxo-1-(prop-2-en-1-ylcarbamoyl)pentan-2-yl]carbamoyl}imidazolidin-1-yl]butan-2-yl]carbamoyl}propyl]carbamoyl}propyl]carbamoyl}-4-acetamidobutanoic acid], for which the inhibition constant Ki (commonly a dissociation constant, usually derived from enzyme kinetics or from competition with a known ligand) amounted to 46 µM. Take `C=CCNC(=O)C(=O)C(CCC)NC(=O)[C@@H]1CN(CC(=O)OCC)C(=O)N1C(=O)[C@@H](NC(=O)[C@@H](NC(=O)[C@H](CCC(=O)O)NC(=O)[C@H](CCC(=O)O)NC(C)=O)C(C)C)C(C)C` (stereo partly drawn) [(4S)-4-{[(1S)-3-carboxy-1-{[(1S)-1-{[(2S)-1-[(5S)-3-(2-ethoxy-2-oxoethyl)-2-oxo-5-{[1-oxo-1-(prop-2-en-1-ylcarbamoyl)pentan-2-yl]carbamoyl}imidazolidin-1-yl]-3-methyl-1-oxobutan-2-yl]carbamoyl}-2-methylpropyl]carbamoyl}propyl]carbamoyl}-4-acetamidobutanoic acid]: the Ki is 4 µM. The result for `C=CCOC(=O)CNC(=O)C(=O)C(CCC)NC(=O)[C@@H]1CN(Cc2ccc(Cl)c(Cl)c2)C(=O)N1C(=O)[C@@H](NC(=O)[C@@H](NC(=O)[C@H](CCC(=O)O)NC(=O)[C@H](CCC(=O)O)NC(C)=O)C(C)C)C(C)C` (stereo partly drawn) [(4S)-4-{[(1S)-3-carboxy-1-{[(1S)-1-{[(2S)-1-[(5S)-3-[(3,4-dichlorophenyl)methyl]-2-oxo-5-[(1-oxo-1-{[2-oxo-2-(prop-2-en-1-yloxy)ethyl]carbamoyl}pentan-2-yl)carbamoyl]imidazolidin-1-yl]-3-methyl-1-oxobutan-2-yl]carbamoyl}-2-methylpropyl]carbamoyl}propyl]carbamoyl}-4-acetamidobutanoic acid] reads 0.31 µM; that for `C=CCNC(=O)C(=O)C(CCC)NC(=O)[C@@H]1CN(CC(=O)OCC)C(=O)N1C(=O)[C@@H](NC(=O)[C@@H](NC(=O)[C@H](CCC(=O)OC(C)(C)C)NC(=O)[C@H](CCC(=O)OC(C)(C)C)NC(C)=O)C(C)C)C(C)C` (stereo partly drawn) [tert-butyl (4S)-4-{[(1S)-4-(tert-butoxy)-1-{[(1S)-1-{[(2S)-1-[(5S)-3-(2-ethoxy-2-oxoethyl)-2-oxo-5-{[1-oxo-1-(prop-2-en-1-ylcarbamoyl)pentan-2-yl]carbamoyl}imidazolidin-1-yl]-3-methyl-1-oxobutan-2-yl]carbamoyl}-2-methylpropyl]carbamoyl}-4-oxobutyl]carbamoyl}-4-acetamidobutanoate], 30 µM; that for `C=CCNC(=O)C(=O)C(CCC)NC(=O)[C@@H]1CN(CC(=O)OCC)C(=O)N1C(=O)[C@@H](NC(=O)[C@@H](NC(=O)OCC(C)C)C(C)C)C(C)C` (stereo partly drawn) [ethyl 2-[(4S)-3-[(2S)-3-methyl-2-[(2S)-3-methyl-2-{[(2-methylpropoxy)carbonyl]amino}butanamido]butanoyl]-2-oxo-4-{[1-oxo-1-(prop-2-en-1-ylcarbamoyl)pentan-2-yl]carbamoyl}imidazolidin-1-yl]acetate], 78 µM. The result for `C=CCNC(=O)C(=O)C(CCC)NC(=O)[C@@H]1CNC(=O)N1C(=O)[C@@H](NC(=O)[C@@H](NC(=O)[C@H](CCC(=O)OC(C)(C)C)NC(=O)[C@H](CCC(=O)OC(C)(C)C)NC(C)=O)C(C)C)C(C)C` (stereo partly drawn) [tert-butyl (4S)-4-{[(1S)-4-(tert-butoxy)-1-{[(1S)-2-methyl-1-{[(2S)-3-methyl-1-oxo-1-[(5S)-2-oxo-5-{[1-oxo-1-(prop-2-en-1-ylcarbamoyl)pentan-2-yl]carbamoyl}imidazolidin-1-yl]butan-2-yl]carbamoyl}propyl]carbamoyl}-4-oxobutyl]carbamoyl}-4-acetamidobutanoate] reads 69 µM; that for `C=CCNC(=O)C(=O)C(CCC)NC(=O)[C@@H]1CN(Cc2ccccc2)C(=O)N1C(=O)[C@@H](NC(=O)[C@@H](NC(=O)[C@H](CCC(=O)O)NC(=O)[C@H](CCC(=O)O)NC(C)=O)C(C)C)C(C)C` (stereo partly drawn) [(4S)-4-{[(1S)-1-{[(1S)-1-{[(2S)-1-[(5S)-3-benzyl-2-oxo-5-{[1-oxo-1-(prop-2-en-1-ylcarbamoyl)pentan-2-yl]carbamoyl}imidazolidin-1-yl]-3-methyl-1-oxobutan-2-yl]carbamoyl}-2-methylpropyl]carbamoyl}-3-carboxypropyl]carbamoyl}-4-acetamidobutanoic acid], 1 µM. As for `C=CCNC(=O)C(=O)C(CCC)NC(=O)[C@@H]1CN(Cc2ccccc2)C(=O)N1C(=O)[C@@H](NC(=O)[C@@H](NC(=O)[C@H](CCC(=O)OC(C)(C)C)NC(=O)[C@H](CCC(=O)OC(C)(C)C)NC(C)=O)C(C)C)C(C)C` (stereo partly drawn) [tert-butyl (4S)-4-{[(1S)-1-{[(1S)-1-{[(2S)-1-[(5S)-3-benzyl-2-oxo-5-{[1-oxo-1-(prop-2-en-1-ylcarbamoyl)pentan-2-yl]carbamoyl}imidazolidin-1-yl]-3-methyl-1-oxobutan-2-yl]carbamoyl}-2-methylpropyl]carbamoyl}-4-(tert-butoxy)-4-oxobutyl]carbamoyl}-4-acetamidobutanoate], the Ki came out at 61 µM. The figure for `C=CCOC(=O)CNC(=O)C(=O)C(CCC)NC(=O)[C@@H]1CN(Cc2ccccc2)C(=O)N1C(=O)[C@@H](NC(=O)[C@@H](NC(=O)[C@H](CCC(=O)OC(C)(C)C)NC(=O)[C@H](CCC(=O)OC(C)(C)C)NC(C)=O)C(C)C)C(C)C` (stereo partly drawn) [tert-butyl (4S)-4-{[(1S)-1-{[(1S)-1-{[(2S)-1-[(5S)-3-benzyl-2-oxo-5-[(1-oxo-1-{[2-oxo-2-(prop-2-en-1-yloxy)ethyl]carbamoyl}pentan-2-yl)carbamoyl]imidazolidin-1-yl]-3-methyl-1-oxobutan-2-yl]carbamoyl}-2-methylpropyl]carbamoyl}-4-(tert-butoxy)-4-oxobutyl]carbamoyl}-4-acetamidobutanoate] is greater than 100 µM.

With `C=CCOC(=O)CNC(=O)C(=O)C(CCC)NC(=O)[C@@H]1CN(Cc2ccc(Cl)c(Cl)c2)C(=O)N1C(=O)[C@@H](NC(=O)[C@@H](NC(=O)[C@H](CCC(=O)OC(C)(C)C)NC(=O)[C@H](CCC(=O)OC(C)(C)C)NC(C)=O)C(C)C)C(C)C` (stereo partly drawn) [tert-butyl (4S)-4-{[(1S)-4-(tert-butoxy)-1-{[(1S)-1-{[(2S)-1-[(5S)-3-[(3,4-dichlorophenyl)methyl]-2-oxo-5-[(1-oxo-1-{[2-oxo-2-(prop-2-en-1-yloxy)ethyl]carbamoyl}pentan-2-yl)carbamoyl]imidazolidin-1-yl]-3-methyl-1-oxobutan-2-yl]carbamoyl}-2-methylpropyl]carbamoyl}-4-oxobutyl]carbamoyl}-4-acetamidobutanoate], the Ki is greater than 100 µM. The figure for `C=CCOC(=O)CNC(=O)C(=O)C(CCC)NC(=O)[C@@H]1CN(Cc2ccccc2)C(=O)N1C(=O)[C@@H](NC(=O)[C@@H](NC(=O)[C@H](CCC(=O)O)NC(=O)[C@H](CCC(=O)O)NC(C)=O)C(C)C)C(C)C` (stereo partly drawn) [(4S)-4-{[(1S)-1-{[(1S)-1-{[(2S)-1-[(5S)-3-benzyl-2-oxo-5-[(1-oxo-1-{[2-oxo-2-(prop-2-en-1-yloxy)ethyl]carbamoyl}pentan-2-yl)carbamoyl]imidazolidin-1-yl]-3-methyl-1-oxobutan-2-yl]carbamoyl}-2-methylpropyl]carbamoyl}-3-carboxypropyl]carbamoyl}-4-acetamidobutanoic acid] is 1 µM.
